Earlier results in US10265268B2, “External composition for screen foamers” (POLA PHARMA INC., priority 2014, dated 2019).

Conditions: surfactants from NIKKOL / suitable examples

Row | Molecule | HLB
1 | CCCCCCCCCCCCCCCCCC(=O)OCC(O)CO (centres unmarked) [Glyceryl monostearate] | 4.0
2 | Polyoxyethylene (20) polyoxypropylene (8) cetyl ether | 12.5
3 | Polyethylene glycol monostearate (40 E.O.) | 17.5

More lines, now with the values ahead:

Row | HLB | Molecule
4 | 13.5 | Polyoxyethylene (10) cetyl ether
5 | 16.5 | Polyoxyethylene (20) behenyl ether
